Data published in patent publication US20020022617A1, “Methods for increasing nitric oxide synthase activity” (American Home Products Corporation, priority 2000, published 2002).

Tested on: aortic rings of ovariectomized rats
Assay: Basal NO release in isolated aortic rings of treated ovariectomized rats (phenylephrine curves before and after L-NAME)
Assay type: in vivo, Sprage-Dawley rats
Conditions: for response of vessels to L-NAME after washout: 1 mg/kg/day by gastric gavage, 200 μM L-NAME, vehicle treated group had a significantly smaller response; for response of the vessels compared among intact, estradiol and TSE-424 treated groups / difference from vehicle treated group (basal NO release, separation of curves before and after L-NAME): 1 mg/kg/day; for response of the vessels compared among intact, estradiol and TSE-424 treated groups: all phenylephrine concentrations (except 0.01 μM phenylephrine TSE-424 treated group); for difference from vehicle treated group (basal NO release, separation of curves before and after L-NAME): at the 10 and 100 μM phenylephrine concentrations, p<0.05
Description: Sprage-Dawley rats (240-260 grams) were divided into 4 groups: (1) Normal non-ovariectomized (intact); (2) Ovariectomized (ovex) vehicle treated; (3) Ovariectomized 17-β estradiol treated (1 mg/kg/day); and (4) Ovariectomized TSE-424 treated (1 mg/kg/day). All animals were ovariectomized approximately 3 weeks prior to treatment. Each received 1 mg/kg/day of either 17-β estradiol sulfate or TSE-424 suspended in distilled, deionized water with 1% tween-80 by gastric gavage. Vehicle treated animals received an appropriate volume of the vehicle used in the drug treated groups.
Animals were euthanized by CO2 inhalation and exsanguination. Their thoracic aortas were rapidly removed and placed in 37° C. physiological solution with the following composition (mM): NaCl (54.7), KCl (5.0), NaHCO3 (25.0), MgCl2.2H2O (2.5), D-glucose (11.8) and CaCl2 (0.2) gassed with […] for a final pH of 7.4. The advantitia was removed from the outer surface and the vessel was cut into 2-3 mm wide rings. Rings were suspended in at 10 mL tissue bath with one end attached to the bottom of the bath and the other to a force transducer. A resting tension of 1 gram was placed on the rings.
After equilibration, the rings were exposed to increasing concentrations of phenylephrine (10^−8 to 10^−4 M) and the tension recorded. Baths were then rinsed 3 times with fresh buffer. After washout, 200 μM N′-nitro-L-arginine methyl ester hydrochloride (L-NAME) was added to the tissue bath and equilibrated for 30 minutes. The phenylephrine concentration response curve was then repeated.
Contraction amplitudes at each concentration of phenylephrine were normalized to the maximum phenylephrine-induced contraction before the addition of L-NAME and graphed. The amount of basal NO released was proportional to the degree of separation between the 2 curves before and after L-NAME. Statistical differences were at the p<0.05 level of significance using a repeated measures “Test of Effect Slices (SAS)” analysis of variance.

`Cc1c(-c2ccc(O)cc2)n(Cc2ccc(OCCN3CCCCCC3)cc2)c2ccc(O)cc12` [TSE-424, 1-[4-(2-Azepan-1yl-ethoxy)-benzyl]-2-(4-hydroxy-phenyl)-3-methyl-1H-indol-5-ol] was tested, and the “response of vessels to L-NAME after washout” value was “substantial contraction”, the “response of the vessels compared among intact, estradiol and TSE-424 treated groups” value was “indistinguishable” and the “difference from vehicle treated group (basal NO release, separation of curves before and after L-NAME)” value was “significantly different”.
For `C[C@]12CC[C@@H]3c4ccc(O)cc4CC[C@H]3[C@@H]1CC[C@@H]2O` [estradiol, 17-β estradiol], the “response of vessels to L-NAME after washout” value was “substantial contraction”, the “response of the vessels compared among intact, estradiol and TSE-424 treated groups” value was “indistinguishable” and the “difference from vehicle treated group (basal NO release, separation of curves before and after L-NAME)” value was “significantly different”.
